US10064858B2, “Methods and compositions for treating bacterial infections with iron chelators” (THE UNITED STATES OF AMERICA, AS REPRESENTED BY THE …, priority 2011, dated 2018)
“Also recorded” adds a separate entry of the source. Like-named read-outs stand apart in the source and are kept apart here.

Tests used:
AB5075 (MRSN959) = assay: Infected punch biopsy wound in mice, topical treatment; format: in vivo
Source text: This example provides an in vivo evaluation of the effectiveness of VK28 in treating a bacterial infection. Mice were wounded with 6 mm punch biopsy and infected with AB5075 (MRSN959) and treated daily for 14 days with poloxamer F-127 gel alone as a control composition (FIG. 11A) or F-127 gel containing 5% VK28 (as a topical composition containing an iron chelator).

Escherichia coli = assay: Growth (OD600) with VK28 in M9 media with magnesium / calcium; format: cell-based; conditions: 24 hours
Procedure: Escherichia coli was grown similar to as described in Example 19 in M9 media containing 2 mM MgSO4 for 24 hours in the presence of 0 μg/ml, 50 μg/ml, 100 μg/ml, or 200 μg/ml VK28. The OD600 was measured at 0, 4, and 24 hour and the results are shown in the time-kill curves of FIG. 18.
(§1) In this example, strains of MR Staphylococcus aureus (MRSA), Acinetobacter baumannii (Acinetobacter), Escherichia coli (E. coli), and Pseudomonas aeruginosa (Pseudomonas) were grown in M9 media in the presence of 2 mM MgSO4 and 1.35 mM CaCl2 for 24 hours in the presence or absence of 0 μg/ml, 50 μg/ml, 100 μg/ml, or 200 μg/ml of VK28. The OD600 was measured at 24 hour and the results are shown in the bar graph of FIG. 21.

[1] = rat; systemically/intravenously; cited from earlier work
Klebsiella pneumonia = assay: Growth (OD600) with VK28 in M9 media with magnesium / calcium; format: cell-based; conditions: 50-200 μg/ml VK28, 24 hours
Procedure: Klebsiella pneumonia was grown in M9 media containing 2 mM MgSO4 for 24 hours in the presence of 0 μg/ml, 50 μg/ml, 100 μg/ml, or 200 μg/ml VK28. The OD600 was measured at 0, 4, and 24 hour and the results are shown in the time-kill curves of FIG. 16.
Klebsiella pneumonia was grown similar to as described in Example 19 in M9 media containing 2 mM MgSO4 and 1.34 mM CaCl2 for 24 hours in the presence of 0 μg/ml, 50 μg/ml, 100 μg/ml, or 200 μg/ml VK28. The OD600 was measured at 24 hour and the results are shown in the bar graph of FIG. 17.

Pseudomonas aeruginosa = assay: as above; format: cell-based; conditions: 24 hours
Procedure: Pseudomonas aeruginosa was grown similar to as described in Example 21 in M9 media containing 2 mM MgSO4 for 24 hours in the presence of 0 μg/ml, 50 μg/ml, 100 μg/ml, or 200 μg/ml VK28. The OD600 was measured at 0, 4, and 24 hour and the results are shown in the time-kill curves of FIG. 20.
as §1

[2] = mouse; systemically/intravenously; cited from earlier work
KP ndm = assay: Checkerboard assay, chelator with antibiotic (FIC); format: cell-based, K. pneumonia
Source text: (§2) Drug interactions were initially evaluated with the “checkerboard” microdilution design, which provided a matrix of all drug combinations assayed in terms of fractions of the previously determined MIC. The checkerboard microdilution design is described in R. J. Tallarida, “Drug Synergism: Its Detection and Applications,” Journal of Pharmacology and Experimental Therapeutics, 865-872 (2001); and in R. L. White, et al., (1996), supra. FIGS. 39A and 39B show the wellplates having different concentrations of iron chelator and antibiotic, as labeled along the x-axis and y-axis.
(§3) The checkerboard assay was used to asses other combinations of iron chelators and antibiotics. The fractional inhibitory concentration index (FIC), which was calculated as follows: FIC=(MIC A in combination/MIC A)+(MIC B in combination/MIC B). Interaction was defined as synergistic if the FIC was <1.0, preferably <0.5, no interaction if the FIC was >1.0 and <4.0, and antagonistic if the FIC was >4.0.
(§4) The assay was run against the multi-drug resistant bacterial species AB 19606, AB 17978, KP ndm, PA PAO1, PA 27853, EC 35718, and EC 43888. Blank spaces indicate concentrations not tested. […] Against the species PA PAO1 and PA 27853, all the antibiotics except for Ami.

PA PAO1, PA 27853 = assay: Checkerboard assay, chelator with antibiotic (FIC); format: cell-based, P. aeruginosa
Source text: as §2, §3, §4

E. coli O157:H7 = assay: Time-kill assay, Apo6619 with Rifampin; format: cell-based; conditions: 1.5×MIC Apo6619 in combination with 0.75×MIC Rifampin; 0, 5 and 24 hours
Procedure: Reductions in colony forming units (CFU)/mL were determined over time (time-kill assay) after exposure to VK28 and deferiprone (DFP), the two iron chelators that performed best in MIC assays when compared to controls. To better represent the iron content found in the human body, MIC and time-kill assays were also determined in minimal media and tissue culture media. Time-Kill assays were performed as previously described in G. P. Neupane et al., “In vitro time-kill activities of ciprofloxacin alone and in combination with the iron chelator deferasirox against Vibrio vulnificus,” European Journal of Clinical Microbiology and Infectious Diseases, 407-410 (2010); and R. L. White, et al., “Comparison of Three Different In Vitro Methods of Detecting synergy: Time-Kill, Checkerboard, and E test,” Journal of Antimicrobial Agents and Chemotherapy, 1914-1918 (1996). Initial inocula, for example 1×10^6 CFU/mL or 1×10^7 CFU/mL were challenged with iron chelator with and/or without an antibiotic. […] Time-kill results were analyzed by determining the change in log 10 numbers of CFU/ml at 0, 6, and 24 h, compared to counts at 0 h. […]
In this example, time-kill assays were performed as described in Example 9 using Apo6619 as the iron chelator in combination with Rifampin against E. coli O157:H7. […] Time-kill results were analyzed by determining the change in log 10 numbers of CFU/mL at 0, 5 and 24 hours.

[3] = M9 with 2 mM MgSO4, 50-200 μg/ml VK28
[4] = M9 with 2 mM MgSO4 and 1.35 mM CaCl2

SMILES: OCCN1CCN(Cc2ccc(O)c3ncccc23)CC1 [VK28, 5-(4-(2-hydroxyethyl)piperazin-1-ylmethyl)-8-hydroxyquinoline]
- wound healing (AB5075 (MRSN959); F-127 gel containing 5% VK28, topical, daily for 14 days, vs gel alone (FIG. 11)): Healing scab and reduced wound size; also recorded: the wound treated with the control composition did not heal as well as the wound treated with the iron chelator composition
- wound healing (AB5075 (MRSN959); composition containing 1% VK28, other mice): not particularly efficacious
- wound healing (AB5075 (MRSN959); composition containing 5% VK28, other mice): efficacious in promoting wound healing
- inhibition of growth (OD600) (Escherichia coli; [3]): inhibition of growth of E. coli is not reduced in the presence of magnesium and calcium
- inhibition of growth (OD600) (Escherichia coli; [4]): inhibition of growth of a number of strains of bacteria is not reduced in the presence of magnesium and calcium
- dose showing toxicity [1]: 70 mg/kg
- inhibition of growth (OD600) (Klebsiella pneumonia; M9 with 2 mM MgSO4): inhibition of growth is not reduced in the presence of magnesium
- inhibition of growth (OD600) (Klebsiella pneumonia; M9 with 2 mM MgSO4 and 1.34 mM CaCl2): inhibition of growth is not reduced in the presence of magnesium and calcium
- inhibition of growth (OD600) (Pseudomonas aeruginosa; [3]): inhibition of growth of Pseudomonas aeruginosa is not reduced in the presence of magnesium
- inhibition of growth (OD600) (Pseudomonas aeruginosa; [4]): inhibition of growth of a number of strains of bacteria is not reduced in the presence of magnesium and calcium
- dose showing toxicity [2]: 30 mg/kg

SMILES: Cc1c(O)c(=O)ccn1C [ApoL1, 3-hydroxy-1,2-dimethyl-4(1H)-pyridone]
- FIC (KP ndm; in combination with Colisitin): 1.25
- FIC (KP ndm; in combination with Rifampin): 0.75
- FIC (PA PAO1, PA 27853; PA 27853, in combination with Amikacin): 1.25
- FIC (PA PAO1, PA 27853; PA 27853, in combination with Cefotaxine): 0.75
- FIC (PA PAO1, PA 27853; PA 27853, in combination with Colisitin): 0.75
- FIC (PA PAO1, PA 27853; PA 27853, in combination with Doxycycline): 0.75
- FIC (PA PAO1, PA 27853; PA 27853, in combination with Rifampin): 0.75
- FIC (PA PAO1, PA 27853; PA PAO1, in combination with Cefotaxine): 0.75
- FIC (PA PAO1, PA 27853; PA PAO1, in combination with Colisitin): 0.75
- FIC (PA PAO1, PA 27853; PA PAO1, in combination with Doxycycline): 0.75
- FIC (PA PAO1, PA 27853; PA PAO1, in combination with Rifampin): 0.75

SMILES: CNC(=O)c1c(O)c(=O)cc(C)n1C1CC1 [Apo6619, 1-cyclopropyl-3-hydroxy-6-methyl-4-oxo-1,4-dihydro-pyridine-2-carboxylic acid methylamide]
- time kill curves (E. coli O157:H7): combinational effect
